Laboratory results from ChEMBL document CHEMBL3045757, “Common binding requirements of PPAR-// pan agonists: quantitative structureactivity relationship analysis of indanylacetic acid derivatives carrying 4-thiazolyl-phenoxy tail group” (Med Chem Res, 2012).
pEC50: −log10 of the molar value.

Biological target: T1, Peroxisome proliferator-activated receptor gamma (Homo sapiens, UniProt P37231)
T1 sequence (P37231 whole entry): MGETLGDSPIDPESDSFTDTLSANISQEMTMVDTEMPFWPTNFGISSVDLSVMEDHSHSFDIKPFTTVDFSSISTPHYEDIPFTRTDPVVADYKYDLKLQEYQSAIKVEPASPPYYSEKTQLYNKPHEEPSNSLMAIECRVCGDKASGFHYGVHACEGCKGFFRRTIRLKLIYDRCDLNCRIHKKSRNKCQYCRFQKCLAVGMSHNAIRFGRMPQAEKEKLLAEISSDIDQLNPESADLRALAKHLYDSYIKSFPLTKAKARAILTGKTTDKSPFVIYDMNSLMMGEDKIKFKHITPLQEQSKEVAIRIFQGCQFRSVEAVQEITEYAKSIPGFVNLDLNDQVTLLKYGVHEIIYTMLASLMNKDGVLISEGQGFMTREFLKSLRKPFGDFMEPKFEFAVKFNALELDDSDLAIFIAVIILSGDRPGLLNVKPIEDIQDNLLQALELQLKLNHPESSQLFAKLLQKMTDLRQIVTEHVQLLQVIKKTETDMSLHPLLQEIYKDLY
Assay: Agonist activity at Homo sapiens (human) PPARgamma expressed in mouse 3T3-L1 cells incubated for 2 days followed by compound wash out measured after 4 days by insulin receptor binding assay
Format: cell-based

pEC50: 6.75
Structure (SMILES): CCOc1nc(-c2ccc(OCCCOc3ccc4c(c3)CC[C@H]4CC(=O)O)c(OC)c2)sc1CC
